Assay results reported in ChEMBL document CHEMBL2074404, “Regulation of multidrug resistance-associated protein 2 (ABCC2) by the nuclear receptors pregnane X receptor, farnesoid X-activated receptor, and constitutive androstane receptor” (J Biol Chem, 2002).

Key:
[1] = biological target: T1, ATP-binding cassette sub-family C member 2 (Homo sapiens, UniProt Q92887); experiment: (§1) TP_TRANSPORTER: Northern blot in vitro, primary hepatocytes; assay type: functional, cell-based, Hepatocyte
[2] = biological target: ATP-binding cassette sub-family C member 2 (Mus musculus, UniProt Q8VI47); experiment: as §1; assay type: functional, cell-based, Hepatocyte
[3] = biological target: T2, Bile salt export pump (Rattus norvegicus, UniProt O70127); experiment: as §1; assay type: functional, cell-based, Hepatocyte
T2 sequence (O70127 whole entry): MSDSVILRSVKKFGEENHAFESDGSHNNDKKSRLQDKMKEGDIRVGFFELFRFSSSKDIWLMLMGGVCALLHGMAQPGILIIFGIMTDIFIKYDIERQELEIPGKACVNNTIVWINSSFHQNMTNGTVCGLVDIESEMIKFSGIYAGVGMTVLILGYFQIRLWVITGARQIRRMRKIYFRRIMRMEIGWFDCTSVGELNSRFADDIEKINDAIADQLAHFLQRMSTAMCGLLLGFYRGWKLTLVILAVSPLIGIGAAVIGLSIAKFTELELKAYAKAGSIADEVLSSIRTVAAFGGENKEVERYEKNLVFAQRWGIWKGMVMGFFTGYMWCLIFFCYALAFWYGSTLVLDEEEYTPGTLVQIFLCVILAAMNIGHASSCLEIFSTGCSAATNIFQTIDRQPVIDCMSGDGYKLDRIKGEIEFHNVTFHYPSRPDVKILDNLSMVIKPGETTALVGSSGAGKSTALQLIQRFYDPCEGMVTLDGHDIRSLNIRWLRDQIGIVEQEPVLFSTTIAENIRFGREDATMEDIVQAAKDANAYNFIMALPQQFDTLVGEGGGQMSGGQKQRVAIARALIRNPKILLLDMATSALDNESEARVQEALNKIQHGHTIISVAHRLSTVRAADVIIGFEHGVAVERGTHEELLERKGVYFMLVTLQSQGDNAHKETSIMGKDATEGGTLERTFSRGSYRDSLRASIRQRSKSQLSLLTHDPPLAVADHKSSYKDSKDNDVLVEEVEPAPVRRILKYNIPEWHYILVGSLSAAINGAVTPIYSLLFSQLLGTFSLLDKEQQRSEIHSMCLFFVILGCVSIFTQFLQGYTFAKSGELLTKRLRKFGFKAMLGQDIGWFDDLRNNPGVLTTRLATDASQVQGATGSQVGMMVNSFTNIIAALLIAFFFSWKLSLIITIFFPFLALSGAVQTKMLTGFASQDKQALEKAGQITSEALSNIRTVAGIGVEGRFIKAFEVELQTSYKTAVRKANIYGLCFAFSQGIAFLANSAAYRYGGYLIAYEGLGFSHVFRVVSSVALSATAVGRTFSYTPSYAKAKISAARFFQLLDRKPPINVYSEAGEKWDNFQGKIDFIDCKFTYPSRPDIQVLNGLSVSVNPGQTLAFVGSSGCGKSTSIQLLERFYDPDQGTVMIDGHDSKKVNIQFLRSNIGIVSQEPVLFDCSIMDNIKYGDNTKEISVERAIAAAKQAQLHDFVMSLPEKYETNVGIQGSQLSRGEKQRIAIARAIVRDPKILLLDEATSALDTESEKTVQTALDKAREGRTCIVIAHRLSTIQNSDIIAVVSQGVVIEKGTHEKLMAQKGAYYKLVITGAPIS

[4] = biological target: T1, ATP-binding cassette sub-family C member 2; experiment: TP_TRANSPORTER: Northern blot from HepG2 cells; assay type: functional, cell-based
[5] = biological target: ATP-binding cassette sub-family C member 2 (Rattus norvegicus, UniProt Q63120); experiment: as §1; assay type: functional, cell-based, Hepatocyte
Sequence of ATP-binding cassette sub-family C member 2 (Rattus norvegicus, UniProt Q63120) (Q63120 whole entry): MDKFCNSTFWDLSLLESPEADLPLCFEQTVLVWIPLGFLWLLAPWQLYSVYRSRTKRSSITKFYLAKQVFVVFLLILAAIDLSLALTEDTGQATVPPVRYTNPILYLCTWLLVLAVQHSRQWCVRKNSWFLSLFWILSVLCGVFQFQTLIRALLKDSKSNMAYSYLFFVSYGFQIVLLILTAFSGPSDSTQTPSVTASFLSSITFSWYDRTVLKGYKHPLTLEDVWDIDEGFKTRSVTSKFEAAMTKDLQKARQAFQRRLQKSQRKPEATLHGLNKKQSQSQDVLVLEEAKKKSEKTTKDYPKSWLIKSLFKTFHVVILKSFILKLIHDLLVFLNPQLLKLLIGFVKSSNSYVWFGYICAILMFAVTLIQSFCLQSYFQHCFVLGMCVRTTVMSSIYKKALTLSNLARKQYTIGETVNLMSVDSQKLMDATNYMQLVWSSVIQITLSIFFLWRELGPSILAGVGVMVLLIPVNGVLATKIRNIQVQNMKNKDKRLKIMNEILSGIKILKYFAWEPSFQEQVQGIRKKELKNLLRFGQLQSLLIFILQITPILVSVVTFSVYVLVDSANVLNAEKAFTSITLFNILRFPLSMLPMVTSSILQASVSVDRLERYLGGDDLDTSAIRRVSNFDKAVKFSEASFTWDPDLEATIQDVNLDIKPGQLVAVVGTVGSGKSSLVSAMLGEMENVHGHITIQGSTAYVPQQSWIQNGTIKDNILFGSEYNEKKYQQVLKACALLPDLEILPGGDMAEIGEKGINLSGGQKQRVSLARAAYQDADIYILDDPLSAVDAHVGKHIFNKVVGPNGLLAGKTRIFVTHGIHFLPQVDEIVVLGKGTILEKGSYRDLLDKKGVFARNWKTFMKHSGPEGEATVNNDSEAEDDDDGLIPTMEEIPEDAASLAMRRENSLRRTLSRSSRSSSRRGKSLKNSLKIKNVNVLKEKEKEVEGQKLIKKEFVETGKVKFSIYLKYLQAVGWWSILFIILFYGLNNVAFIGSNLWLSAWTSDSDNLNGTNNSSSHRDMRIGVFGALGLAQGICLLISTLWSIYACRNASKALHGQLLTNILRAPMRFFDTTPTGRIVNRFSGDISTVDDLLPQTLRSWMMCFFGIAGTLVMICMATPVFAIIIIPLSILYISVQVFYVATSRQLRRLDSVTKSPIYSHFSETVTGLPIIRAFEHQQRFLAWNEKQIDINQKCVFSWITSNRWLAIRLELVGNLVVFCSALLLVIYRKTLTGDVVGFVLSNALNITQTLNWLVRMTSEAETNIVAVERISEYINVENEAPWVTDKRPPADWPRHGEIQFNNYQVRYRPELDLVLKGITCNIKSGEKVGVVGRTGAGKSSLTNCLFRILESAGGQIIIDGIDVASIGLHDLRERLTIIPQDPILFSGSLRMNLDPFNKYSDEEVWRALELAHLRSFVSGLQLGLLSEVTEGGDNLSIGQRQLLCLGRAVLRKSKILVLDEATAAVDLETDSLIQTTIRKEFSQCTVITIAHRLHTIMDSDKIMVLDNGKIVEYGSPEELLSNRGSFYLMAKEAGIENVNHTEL

T1 sequence (Q92887 whole entry): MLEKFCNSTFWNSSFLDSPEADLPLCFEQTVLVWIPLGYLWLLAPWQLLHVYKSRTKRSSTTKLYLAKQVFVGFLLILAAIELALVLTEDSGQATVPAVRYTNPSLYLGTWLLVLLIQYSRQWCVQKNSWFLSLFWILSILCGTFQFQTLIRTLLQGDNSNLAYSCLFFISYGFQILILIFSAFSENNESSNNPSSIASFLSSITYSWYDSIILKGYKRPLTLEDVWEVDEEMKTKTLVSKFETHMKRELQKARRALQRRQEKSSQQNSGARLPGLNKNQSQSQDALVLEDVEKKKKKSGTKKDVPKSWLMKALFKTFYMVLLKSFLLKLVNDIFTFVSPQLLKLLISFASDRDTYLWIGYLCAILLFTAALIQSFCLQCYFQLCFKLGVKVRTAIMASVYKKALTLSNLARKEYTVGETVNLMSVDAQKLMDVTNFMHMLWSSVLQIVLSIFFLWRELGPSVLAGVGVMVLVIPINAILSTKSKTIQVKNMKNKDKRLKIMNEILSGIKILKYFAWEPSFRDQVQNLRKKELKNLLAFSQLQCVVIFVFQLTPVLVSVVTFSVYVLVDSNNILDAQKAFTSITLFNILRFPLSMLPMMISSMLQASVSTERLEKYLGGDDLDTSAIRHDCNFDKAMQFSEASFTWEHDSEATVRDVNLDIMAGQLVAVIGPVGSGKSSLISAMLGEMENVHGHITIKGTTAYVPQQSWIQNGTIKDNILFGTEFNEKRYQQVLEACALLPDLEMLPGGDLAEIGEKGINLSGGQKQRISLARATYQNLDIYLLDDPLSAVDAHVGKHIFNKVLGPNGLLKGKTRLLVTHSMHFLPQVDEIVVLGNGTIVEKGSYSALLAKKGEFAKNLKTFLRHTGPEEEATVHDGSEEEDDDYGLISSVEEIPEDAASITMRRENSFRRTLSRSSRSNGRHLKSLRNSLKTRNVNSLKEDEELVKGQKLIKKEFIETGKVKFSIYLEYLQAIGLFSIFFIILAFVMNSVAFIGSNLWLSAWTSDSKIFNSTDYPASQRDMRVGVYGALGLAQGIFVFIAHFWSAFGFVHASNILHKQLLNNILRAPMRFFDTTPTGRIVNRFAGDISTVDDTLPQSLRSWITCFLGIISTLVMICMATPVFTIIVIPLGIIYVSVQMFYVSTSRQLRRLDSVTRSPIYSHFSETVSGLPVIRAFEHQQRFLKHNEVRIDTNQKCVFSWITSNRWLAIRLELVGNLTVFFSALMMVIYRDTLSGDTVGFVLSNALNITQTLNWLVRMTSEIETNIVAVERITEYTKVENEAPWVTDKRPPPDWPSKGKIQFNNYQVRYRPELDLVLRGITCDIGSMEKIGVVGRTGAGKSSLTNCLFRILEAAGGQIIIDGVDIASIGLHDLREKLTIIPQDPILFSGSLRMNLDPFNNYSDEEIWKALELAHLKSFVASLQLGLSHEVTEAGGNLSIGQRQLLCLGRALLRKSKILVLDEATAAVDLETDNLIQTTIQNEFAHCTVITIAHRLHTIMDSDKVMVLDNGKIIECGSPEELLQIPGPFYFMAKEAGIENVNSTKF
Sequence of ATP-binding cassette sub-family C member 2 (Mus musculus, UniProt Q8VI47) (Q8VI47 whole entry): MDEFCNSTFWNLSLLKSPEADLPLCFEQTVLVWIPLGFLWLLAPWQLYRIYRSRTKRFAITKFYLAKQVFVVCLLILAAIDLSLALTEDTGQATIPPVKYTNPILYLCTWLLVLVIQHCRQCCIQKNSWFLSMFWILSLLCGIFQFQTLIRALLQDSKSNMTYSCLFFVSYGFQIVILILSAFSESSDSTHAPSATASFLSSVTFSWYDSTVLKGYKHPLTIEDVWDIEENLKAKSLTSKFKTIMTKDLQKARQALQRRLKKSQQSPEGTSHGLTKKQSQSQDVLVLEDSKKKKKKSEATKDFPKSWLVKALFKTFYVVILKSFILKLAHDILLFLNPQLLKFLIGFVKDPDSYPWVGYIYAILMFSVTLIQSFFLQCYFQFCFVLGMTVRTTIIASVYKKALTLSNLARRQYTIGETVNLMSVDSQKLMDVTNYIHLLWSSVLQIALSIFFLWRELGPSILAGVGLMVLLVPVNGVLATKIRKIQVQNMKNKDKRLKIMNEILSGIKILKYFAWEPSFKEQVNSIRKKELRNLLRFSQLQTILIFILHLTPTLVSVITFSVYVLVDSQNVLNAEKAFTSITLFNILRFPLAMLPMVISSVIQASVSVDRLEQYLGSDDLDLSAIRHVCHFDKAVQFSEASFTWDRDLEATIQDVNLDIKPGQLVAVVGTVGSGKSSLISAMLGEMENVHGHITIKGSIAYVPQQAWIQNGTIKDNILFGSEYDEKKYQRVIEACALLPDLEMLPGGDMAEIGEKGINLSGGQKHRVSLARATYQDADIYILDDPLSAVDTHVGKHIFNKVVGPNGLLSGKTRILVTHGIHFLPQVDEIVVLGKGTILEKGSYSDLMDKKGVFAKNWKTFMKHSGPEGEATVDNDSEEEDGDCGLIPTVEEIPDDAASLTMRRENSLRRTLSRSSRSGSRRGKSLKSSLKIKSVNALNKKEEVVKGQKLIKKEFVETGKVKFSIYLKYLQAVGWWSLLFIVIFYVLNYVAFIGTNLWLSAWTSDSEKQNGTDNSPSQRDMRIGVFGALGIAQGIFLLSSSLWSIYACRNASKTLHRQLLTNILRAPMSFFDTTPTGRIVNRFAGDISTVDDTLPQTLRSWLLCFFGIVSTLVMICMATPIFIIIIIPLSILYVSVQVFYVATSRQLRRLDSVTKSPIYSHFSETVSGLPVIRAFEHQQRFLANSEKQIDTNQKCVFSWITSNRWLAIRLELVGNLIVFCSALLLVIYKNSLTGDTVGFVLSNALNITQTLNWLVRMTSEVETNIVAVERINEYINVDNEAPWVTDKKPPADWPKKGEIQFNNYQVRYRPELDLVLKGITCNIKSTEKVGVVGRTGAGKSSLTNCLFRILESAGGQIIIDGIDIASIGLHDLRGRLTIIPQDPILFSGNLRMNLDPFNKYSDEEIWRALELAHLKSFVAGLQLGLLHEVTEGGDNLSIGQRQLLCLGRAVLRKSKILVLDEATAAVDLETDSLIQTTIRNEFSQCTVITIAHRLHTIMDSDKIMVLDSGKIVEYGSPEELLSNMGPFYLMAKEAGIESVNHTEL

Structure (SMILES)	Activity [1]	Activity [2]	Activity [3]	Activity [4]	Activity [5]
CC(C)=CCC[C@]1(C)[C@@H](CC=C(C)C)C[C@]2(CC=C(C)C)C(=O)C(CC=C(C)C)=C(O)[C@@]1(C(=O)C(C)C)C2=O	inducer [+]	–	–	–	–
CCC1(c2ccccc2)C(=O)NC(=O)NC1=O [PHENOBARBITAL]	–	inducer [+]	inducer [+]	–	–
CC(C)c1onc(-c2c(Cl)cccc2Cl)c1COc1ccc(/C=C/c2cccc(C(=O)O)c2)c(Cl)c1	–	–	inducer [+]	inducer [+]	inducer [+]
C[C@H](CCC(=O)O)[C@H]1CC[C@H]2[C@@H]3[C@H](O)C[C@@H]4C[C@H](O)CC[C@]4(C)[C@H]3CC[C@]12C [CHENODIOL]	–	–	–	inducer [+]	–
CC(=O)[C@H]1[C@H](C#N)C[C@H]2[C@@H]3CC=C4C[C@@H](O)CC[C@]4(C)[C@H]3CC[C@@]21C [PREGNENOLONE CARBONITRILE]	–	inducer [+]	inducer [+]	–	inducer [+]
